Measurements published in patent US12286418B2, “Compounds and methods for treating or preventing bacterial infections” (priority 2019, dated 2025).
“And” between values parts separate entries of the source, which are not always exact repeats. Equal values may be shown once. “Also recorded” adds a separate entry of the source.

What was measured:
OXA-48 [1] = target: T1, OXA-48 (Klebsiella pneumoniae, UniProt Q6XEC0); conditions: non-β-lactam inhibitors; cited from earlier work
OXA-48 [2] = target: T1, OXA-48; test: Surface plasmon resonance binding to immobilized 6x-His-OXA-48; parameters: His-tag (N, cleaved yes); made in house; host or cells: E. coli BL21(DE3), pET28a; conditions: SPR, immobilized His-OXA-48, positive control
Procedure: 6×-His-OXA-48 was capture/amine-coupled on a Ni-NTA Chip at a density of ˜5000 RU. Running buffer was 10 mM HEPES pH 7.4, 150 NaCl, 50 mM NaHCO3, 0.005% Tween-20, 2% DMSO. Concentration gradients of each compound were created from 0-15 μM using OneStep Injections in at least triplicates for meropenem and CDD-97.
(§1) Synthon-derivatives were created, without DNA tags, based on high OXA-48 enrichment and minimal NTC enrichment. The activity of these derivatives was assessed using inhibition assays with purified OXA-48. Compounds were tested for the ability to inhibit OXA-48 from hydrolyzing nitrocefin, a chromogenic β-lactam substrate routinely used in β-lactamase inhibition assays. Nitrocefin contains a conjugated ring system that is readily hydrolyzed and produces a visible color shift from yellow to red upon hydrolysis (O'Callaghan, et al., 1972, Antimicrob. Agents Chemother. 1:283-288). The rate of nitrocefin hydrolysis in the presence of a constant amount of OXA-48 and increasing concentrations of a given compound of interest was monitored at 482 nm. These rates were plotted against compound concentration to determine the inhibition constant (Ki) against OXA-48. Compounds with promising activity were also assessed for binding using surface plasmon resonance (SPR). SPR was performed using 6×-His-OXA-48 enzyme that was amine-coupled on a Ni-NTA Chip. Meropenem, which covalently binds and inhibits OXA-48, was used as a positive control.

OXA-48 [3] = target: T1, OXA-48; test: OXA-48 inhibition assay using nitrocefin as reporter; assay type: biochemical; parameters: His-tag (N, cleaved yes); made in house; host or cells: E. coli BL21(DE3), pET28a
Procedure: Nitrocefin, a chromogenic β-lactam substrate, was used as a reporter in all inhibition assays with the various OXA enzymes and various compounds. Nitrocefin is not stable in aqueous solution long-term. For these assays, nitrocefin stocks were prepared in DMSO, stored at −20° C. and used within 2 weeks of dissolving. To avoid freeze-thawing, fresh stocks were always used. The Km of nitrocefin was determined prior to inhibition assays by performing steady state kinetics. Assays were performed using a DU800 spectrophotometer at room temperature in 50 mM HEPES pH 7.5, 15 mM NaHCO3, and 0.02% tween 20 buffer. Hydrolyzed nitrocefin was detected at 482 nm. For a single experiment, a series of at least 5 nitrocefin concentrations were tested against the given enzyme in duplicate and the initial velocities were measured and fit to the Michaelis-Menten equation. Experiments were repeated twice, and error reported is the standard error of the mean.
Compounds were tested for inhibition of a given OXA enzyme from hydrolyzing nitrocefin using a Tecan plate reader. […] A control with no compound was included in each run. For each compound concentration, the velocity of nitrocefin hydrolysis was determined at 482 nm and fit to the Morrison equation. […] The average Ki of separate experiments, each of which consisted of duplicate runs, is reported and error was quantified as the standard deviation.
as §1, with “The” for “Synthon-derivatives were created, without DNA tags, based on high OXA-48 enrichment and minimal NTC enrichment. The”, “Compounds with promising activity were also assessed for binding using surface plasmon resonance (SPR).” left out

OXA-48 [4] = target: T1, OXA-48; test: Example 8 inhibition assay with nitrocefin (aromatic acids): OXA-48; assay type: biochemical; parameters: His-tag (N, cleaved yes); made in house; host or cells: E. coli BL21(DE3), pET28a
Procedure: (§2) For each of the OXA enzymes, the nitrocefin steady states were determined so nitrocefin could be used as a reporter in the inhibition assays. Nitrocefin (MilliporeSigma, Burlington, MA) was kept at −20° C. upon purchase and thawed at room temperature and diluted in DMSO for usage. DMSO stocks were aliquoted and kept at −20° C. for only up to 2 weeks after dissolving. To determine the steady state kinetic parameters for nitrocefin hydrolysis, reactions were monitored on a DU-800 spectrophotometer (Beckman Coulter, Brea, CA) at 25° C. Enzyme and substrate samples were diluted using 50 mM HEPES, pH 7.5, 15 mM NaHCO3, and 0.02% Tween-20. Hydrolyzed nitrocefin was tracked at 482 nm. For a single experiment, a series of at least 5 nitrocefin concentrations was tested against the given enzyme. Each substrate concentration was tested in duplicate and initial velocities were averaged (for a given concentration) and fit the Michaelis-Menten equation. The experiment was repeated for rigor. The Km values determined for each enzyme was used to determine the amount of nitrocefin to use in the inhibition assays.
The inhibition activity for compounds were assessed using inhibition assays with nitrocefin as the reporter. A constant concentration of nitrocefin and the given enzyme was used with increasing concentrations of the compound in question. […] The enzymes OXA-24, OXA-48 and OXA-58 were used in their corresponding inhibition experiments at a constant concentration of 0.2 nM, 0.2 nM and 0.1 nM respectively. Compounds were tested at up to 500-4000 μM depending on solubility and absorbance output. The initial velocity of nitrocefin hydrolysis was monitored using a Tecan M200 Infinite Pro plate reader (Tecan, Mannedorf, Switzerland). The velocities at various compound concentrations were fit to the Morrison Tight Binding equation to determine the Ki value for the given fragment with the given OXA enzyme. Ligand efficiency (LE) was calculated using a previously reported equation: LE=1.37 (pKi)/(# non-Hydrogen atoms). […]

OXA-24 = target: T2, OXA-24 (Acinetobacter baumannii, UniProt Q8RLA6); test: Example 8 inhibition assay with nitrocefin (aromatic acids): OXA-24; assay type: biochemical
T2 construct: His-tag (N, cleaved yes); made in house; host or cells: E. coli BL21 (DE3), pET28a
T2 sequence (Q8RLA6 entry or part of it): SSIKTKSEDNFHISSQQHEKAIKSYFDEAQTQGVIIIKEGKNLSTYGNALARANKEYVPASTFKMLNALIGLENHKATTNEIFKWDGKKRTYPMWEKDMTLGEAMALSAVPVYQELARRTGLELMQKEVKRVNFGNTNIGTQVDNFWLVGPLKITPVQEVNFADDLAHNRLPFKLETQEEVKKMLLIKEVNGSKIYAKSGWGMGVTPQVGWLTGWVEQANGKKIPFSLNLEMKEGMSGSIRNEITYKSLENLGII
Procedure: as §2, with “Each substrate concentration was tested in duplicate and initial velocities were averaged (for a given concentration) and fit the Michaelis-Menten equation. The experiment was repeated for rigor.” left out
(§3) The inhibition activity for compounds were assessed using inhibition assays with nitrocefin as the reporter. […] Compounds were tested at up to 500-4000 μM depending on solubility and absorbance output. The initial velocity of nitrocefin hydrolysis was monitored using a Tecan M200 Infinite Pro plate reader (Tecan, Mannedorf, Switzerland). […] Ligand efficiency (LE) was calculated using a previously reported equation: LE=1.37 (pKi)/(# non-Hydrogen atoms). […]

OXA-58 = target: T3, OXA-58 (Acinetobacter baumannii, UniProt Q2TR58); test: biochemical
T3 construct: His-tag (N, cleaved yes); made in house; host or cells: E. coli BL21 (DE3), pET28a
T3 sequence (Q2TR58 19-280): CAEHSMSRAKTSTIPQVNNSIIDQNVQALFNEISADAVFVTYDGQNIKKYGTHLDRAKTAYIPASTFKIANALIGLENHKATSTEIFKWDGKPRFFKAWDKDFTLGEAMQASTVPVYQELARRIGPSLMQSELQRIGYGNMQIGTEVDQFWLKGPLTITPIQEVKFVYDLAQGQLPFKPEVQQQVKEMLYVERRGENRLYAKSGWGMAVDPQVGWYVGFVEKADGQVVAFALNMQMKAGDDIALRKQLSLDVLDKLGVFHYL
Procedure: as §2, with “Each substrate concentration was tested in duplicate and initial velocities were averaged (for a given concentration) and fit the Michaelis-Menten equation. The experiment was repeated for rigor.” left out
as §3

[5] = purified OXA-48, nitrocefin hydrolysis, Morrison fit

T1 sequence (Q6XEC0 23-265, looked up): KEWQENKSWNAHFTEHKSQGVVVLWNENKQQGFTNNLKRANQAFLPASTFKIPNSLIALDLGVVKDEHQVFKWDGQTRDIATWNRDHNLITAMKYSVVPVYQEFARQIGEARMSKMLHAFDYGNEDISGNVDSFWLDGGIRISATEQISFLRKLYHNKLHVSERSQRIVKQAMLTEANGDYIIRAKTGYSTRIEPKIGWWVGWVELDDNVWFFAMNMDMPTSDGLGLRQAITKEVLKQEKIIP

O=C(O)C[C@@H]1CC[C@H](NC(=O)Cc2cccs2)B(O)O1 [vaborbactam]
efficacy against OXA-48 in words (OXA-48 [1]): ineffective against OXA-48

O=C(NC1CCNCC1)[C@@H]1CC[C@@H]2CN1C(=O)N2OS(=O)(=O)O [relebactam]
efficacy against OXA-48 in words (OXA-48 [1]): ineffective against OXA-48

C[C@@H](O)[C@H]1C(=O)N2C(C(=O)O)=C(S[C@@H]3CN[C@H](C(=O)N(C)C)C3)[C@H](C)[C@H]12 [Meropenem, reference compound]
Kd (OXA-48 [2]): 0.4235 ± 0.0002 µM

CCOc1ccccc1OCCOc1ncnc(N2CCC(C(=O)O)CC2)n1
Ki (OXA-48 [3]; [5]): 18.8 ± 2.5 µM

CCOc1ccccc1N1CCN(c2nc(NCCN)nc(N3CCC(C(=O)O)CC3)n2)CC1 [CDD-864, 1-(4-((2-aminoethyl)amino)-6-(4-(2-ethoxyphenyl)piperazin-1-yl)-1,3,5-triazin-2-yl)piperidine-4-carboxylic acid]
Ki (OXA-48 [3]; [5]): 0.6 µM

O=C(O)c1ccc(-c2ccc(C(=O)O)cc2)cc1 [Compound 2.1]
ligand efficiency (LE) for OXA-48 inhibition (OXA-48 [4]; LE=1.37 (pKi)/(# non-Hydrogen atoms)): 0.36
Ki (OXA-48 [4]; OXA-48 0.2 nM, 25 μM nitrocefin): 17.2 ± 1 µM

CCOc1ccccc1N1CCN(c2ncnc(N3CCC(C(=O)O)C(N)C3)n2)CC1 (centres unmarked) [CDD-825]
Ki (OXA-48 [3]; [5]): 17 µM and 16.9 µM
fold reduction in potency (OXA-48 Ki) compared to CDD-97 (OXA-48 [3]; relative to CDD-97): approximately 30 fold

CCOc1ccccc1N1CCN(c2nc(N3CCC(C(=O)O)CC3)nc(N3CC(F)(C(=O)NC)C3)n2)CC1 [CDD-163, 1-(4-(4-(2-ethoxyphenyl)piperazin-1 yl)-6-(3-fluoro-3-(methylcarbamoyl)azetidin-1-yl)-1,3,5-triazin-2-yl)piperidine-4-carboxylic acid]
Ki (OXA-48 [3]; [5]): > 50 µM

O=C(O)c1ccccc1O [Compound 1.1]
inhibition activity against OXA-24 in words (OXA-24): low millimolar activity
Ki (OXA-58): 379 ± 44 µM
inhibition activity against OXA-48 in words (OXA-48 [4]): low millimolar activity

CCOc1ccccc1N1CCN(c2ncnc(N3CCC(S(=O)(=O)O)CC3)n2)CC1 [CDD-862, 1-(4-(4-(2-ethoxyphenyl)piperazin-1-yl)-1,3,5-triazin-2-yl)piperidine-4-sulfonic acid]
Ki (OXA-48 [3]; purified OXA-48, nitrocefin): 0.26 µM
Ki (OXA-48 [3]; [5]): 0.27 ± 0.02 µM

CCOc1ccccc1N1CCN(c2ncnc(N3CCC(C(=O)OC)CC3)n2)CC1 [CDD-95, methyl 1-(4-(4-(2-ethoxyphenyl)piperazin-1-yl)-1,3,5-triazin-2-yl)piperidine-4-carboxylate]
potency/activity against OXA-48 in words (OXA-48 [3]; purified OXA-48, compared with CDD-97 where a derivative): low of activity; also recorded: significant loss of inhibitory activity
Ki (OXA-48 [3]; [5]): ≥ 50 µM
